One series has as its target T1, METTL3-14 complex (Homo sapiens, UniProt Q86U44).
T1 construct: genes encoding the full-length and MTase domain of human METTL3; METTL3-14 FL: full length of METTL3-14; 10x His (thrombin-cleavable) (cleaved yes); made in house; host or cells: Trichoplusia ni (Hi5) cells co-infected with two baculoviruses (virus made in Sf9)
Briefly: METTL3-14 enzyme-based bioluminescence assay (screening assay). The class given is biochemical. The settings on record: for Km: Michaelis-Menten, Figure S1, read-out: Km of METTL3-14 substrates; for inhibition at 60 µM: read-out: % inhibition of METTL3-14 at 60 μM, 60 μM compound. Here is the method:
An enzymatic bioluminescence assay was established to identify the METTL3-14 inhibitor through screening. […] METTL3-14 activity was assessed by measuring the luminescence using a Victor multilabel reader (PerkinElmer, Waltham, MA, USA). The IC50 values were calculated by a nonlinear regression analysis using OriginPro 9.1 software (OriginLab).
To confirm the mechanism of action of eltrombopag in the METTL3-14 complex, 30 nM METTL3-14 and serially diluted eltrombopag were reacted with various concentrations of SAM or RNA substrate and saturating concentrations of the other substrate (3 μM SAM or 2 μM RNA substrate) for 20 min. To evaluate the inhibitory activity in a single form of METTL3 and METTL14, 1 μM of METTL3 and 300 nM of METTL14 were incubated with 1 μM of SAM, 500 nM of RNA substrates, and serially diluted eltrombopag for 5 h. To measure the inhibitory activity in the truncated form of the METTL3-14 complex, 1 μM of the truncated METTL3-14 complex was reacted with 1 μM of SAM, 500 nM of RNA substrates, and serially diluted eltrombopag for 5 h.

Series [1] relates to MOLM-13 cells. Briefly: Anti-proliferative assay (EZ-cytox), MOLM-13. The class given is cell-based. Conditions: Homo sapiens. Here is the method: The MOLM-13, MOLM-14, HL60, MV4-11, and THP-1 cells were seeded in white 96-well clear bottomed plates with 100 μL of medium (5000 cells/well). The plated cells were treated with serially diluted compounds and incubated for 72 h at 37 °C. After incubation, 10 μL of EZ-cytox kit reagent from the EZ-cytox cell viability assay kit (DaeiLab, Seoul, Korea) was added to each well and then incubated for 3 h at 37 °C. The absorbance of metabolically active cells was measured at a wavelength of 450 nm using a Victor multilabel reader (PerkinElmer). The GI50 values were calculated by nonlinear regression analysis using OriginPro 9.1 software (OriginLab).

In series [2] the test system is m^6A methylation of MOLM-13 transcriptome. Details: method as in PMID 33902106. Conditions: cited from earlier work.
The test system of series [3] is MOLM-13 cells. The experiment in a line: Combinatorial analysis of AML drugs with eltrombopag (EZ-cytox, Synergyfinder). The settings on record: Homo sapiens, MOLM-13, 72 h, eltrombopag 0 nM; for inhibition at 0.00167 µM: AML drug alone 1.67 nM; for inhibition at 0.005 µM: AML drug alone 5 nM; for inhibition at 0.015 µM: AML drug alone 15 nM; for inhibition at 0.045 µM: AML drug alone 45 nM. The class given is cell-based. Here is the method: The MOLM-13 cells were seeded in white 96-well clear bottomed plates with 50 μL of medium (5000 cells/well). The plated cells were treated with serially diluted eltrombopag and current AML drugs, including venetoclax, cytarabine, gilteritinib, and sorafenib, to a final volume of 100 μL and incubated for 72 h at 37 °C. After incubation, 10 μL of EZ-cytox kit reagent from the EZ-cytox cell viability assay kit (DaeiLab) was added to each well and then incubated for 3 h at 37 °C. The absorbance of metabolically active cells was measured at a wavelength of 450 nm using a Victor multilabel reader (PerkinElmer). The synergy scores of each combination were quantified by the HAS model, ZIP model, Loewe additivity model, and Bliss independence models using Synergyfinder software. Positive or negative synergy scores obtained through these models represent synergy and antagonism, respectively.

The target of another series is T2, DOT1L (Homo sapiens, UniProt Q8TEK3).
T2 construct: purchased Reaction Biology (Malvern, PA, USA), contract assay
Briefly: Methyltransferase selectivity panel (MT HotSpot radioisotope assay), DOT1L. Format: biochemical. Here is the method:
(§1) The selectivity profile of eltrombopag was investigated by testing the level of inhibition in a methyltransferase panel. The inhibition of 7 […] methyltransferase was tested at Reaction Biology (Malvern, PA, USA) using a gold standard radioisotope-based MT assay (MT HotSpot^TM) with 10 μM of eltrombopag in duplicate.

For series [4], the system named is m^6A/A on poly-A+-enriched mRNA of MOLM-13 cells. Details: method as in PMID 34237194. Conditions: cited from earlier work.
Another series addresses T3, SETD2 (Homo sapiens, UniProt Q9BYW2).
T3 construct: purchased Reaction Biology (Malvern, PA, USA), contract assay
Briefly: Methyltransferase selectivity panel (MT HotSpot radioisotope assay), SETD2. Format: biochemical. The settings on record: positive control. Here is the method:
as §1

In another series the target is T4, SMYD3 (Homo sapiens, UniProt Q9H7B4).
T4 construct: purchased Reaction Biology (Malvern, PA, USA), contract assay
T4 sequence (Q9H7B4 1-428): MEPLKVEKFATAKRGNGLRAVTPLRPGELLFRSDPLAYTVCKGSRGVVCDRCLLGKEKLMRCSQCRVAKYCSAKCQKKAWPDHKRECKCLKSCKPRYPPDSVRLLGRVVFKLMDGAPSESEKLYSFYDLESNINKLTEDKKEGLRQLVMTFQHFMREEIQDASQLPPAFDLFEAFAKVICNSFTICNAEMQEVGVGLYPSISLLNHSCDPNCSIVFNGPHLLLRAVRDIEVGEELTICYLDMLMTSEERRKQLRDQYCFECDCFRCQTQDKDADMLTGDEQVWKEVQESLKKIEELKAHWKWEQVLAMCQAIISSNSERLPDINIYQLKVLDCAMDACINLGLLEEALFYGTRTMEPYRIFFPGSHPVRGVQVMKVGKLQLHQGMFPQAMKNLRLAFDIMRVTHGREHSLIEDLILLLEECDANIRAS
The experiment in a line: Methyltransferase selectivity panel (MT HotSpot radioisotope assay), SMYD3. Format: biochemical. Here is the method: as §1

In another series the target is T5, MLL4 complex (Homo sapiens, UniProt Q9UMN6).
T5 construct: purchased Reaction Biology (Malvern, PA, USA), contract assay
Briefly: Methyltransferase selectivity panel (MT HotSpot radioisotope assay), MLL4 complex. Format: biochemical. Conditions: positive control. Here is the method:
as §1

A further series concerns the target T6, PRDM9 (Homo sapiens, UniProt Q9NQV7).
T6 construct: purchased Reaction Biology (Malvern, PA, USA), contract assay
The experiment in a line: Methyltransferase selectivity panel (MT HotSpot radioisotope assay), PRDM9. Format: biochemical. Conditions: positive control. Here is the method:
as §1

T1 sequence (Q86U44 whole entry, the tested form may be a part): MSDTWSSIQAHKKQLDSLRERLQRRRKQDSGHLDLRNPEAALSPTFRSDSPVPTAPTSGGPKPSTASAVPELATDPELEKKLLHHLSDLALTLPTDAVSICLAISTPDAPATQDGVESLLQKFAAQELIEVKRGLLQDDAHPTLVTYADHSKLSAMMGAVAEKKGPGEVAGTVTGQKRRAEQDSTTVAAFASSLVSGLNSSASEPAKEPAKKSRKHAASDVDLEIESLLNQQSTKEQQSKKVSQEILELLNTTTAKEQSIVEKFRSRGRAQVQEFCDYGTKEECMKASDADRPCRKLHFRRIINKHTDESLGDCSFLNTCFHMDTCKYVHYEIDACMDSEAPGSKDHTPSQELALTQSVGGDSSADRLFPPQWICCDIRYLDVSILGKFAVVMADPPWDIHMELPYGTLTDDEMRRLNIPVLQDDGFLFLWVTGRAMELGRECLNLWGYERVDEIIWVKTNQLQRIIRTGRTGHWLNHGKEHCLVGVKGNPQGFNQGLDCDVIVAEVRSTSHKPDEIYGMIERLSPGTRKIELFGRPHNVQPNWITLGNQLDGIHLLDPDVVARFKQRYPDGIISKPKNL
T1 sequence (Q9HCE5 whole entry partner, the tested form may be a part): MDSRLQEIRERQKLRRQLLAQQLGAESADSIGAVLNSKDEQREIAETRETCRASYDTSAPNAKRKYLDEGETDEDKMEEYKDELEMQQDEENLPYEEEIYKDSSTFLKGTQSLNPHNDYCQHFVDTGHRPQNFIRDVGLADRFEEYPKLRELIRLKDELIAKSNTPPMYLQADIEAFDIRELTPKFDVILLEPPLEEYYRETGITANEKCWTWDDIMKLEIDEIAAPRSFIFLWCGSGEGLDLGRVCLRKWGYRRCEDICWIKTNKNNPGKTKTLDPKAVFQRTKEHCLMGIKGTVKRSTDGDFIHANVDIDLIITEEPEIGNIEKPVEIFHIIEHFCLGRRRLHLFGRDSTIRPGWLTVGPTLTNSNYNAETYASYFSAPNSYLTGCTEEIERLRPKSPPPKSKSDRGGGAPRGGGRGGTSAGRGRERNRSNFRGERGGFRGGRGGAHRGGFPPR
T3 sequence (Q9BYW2 whole entry): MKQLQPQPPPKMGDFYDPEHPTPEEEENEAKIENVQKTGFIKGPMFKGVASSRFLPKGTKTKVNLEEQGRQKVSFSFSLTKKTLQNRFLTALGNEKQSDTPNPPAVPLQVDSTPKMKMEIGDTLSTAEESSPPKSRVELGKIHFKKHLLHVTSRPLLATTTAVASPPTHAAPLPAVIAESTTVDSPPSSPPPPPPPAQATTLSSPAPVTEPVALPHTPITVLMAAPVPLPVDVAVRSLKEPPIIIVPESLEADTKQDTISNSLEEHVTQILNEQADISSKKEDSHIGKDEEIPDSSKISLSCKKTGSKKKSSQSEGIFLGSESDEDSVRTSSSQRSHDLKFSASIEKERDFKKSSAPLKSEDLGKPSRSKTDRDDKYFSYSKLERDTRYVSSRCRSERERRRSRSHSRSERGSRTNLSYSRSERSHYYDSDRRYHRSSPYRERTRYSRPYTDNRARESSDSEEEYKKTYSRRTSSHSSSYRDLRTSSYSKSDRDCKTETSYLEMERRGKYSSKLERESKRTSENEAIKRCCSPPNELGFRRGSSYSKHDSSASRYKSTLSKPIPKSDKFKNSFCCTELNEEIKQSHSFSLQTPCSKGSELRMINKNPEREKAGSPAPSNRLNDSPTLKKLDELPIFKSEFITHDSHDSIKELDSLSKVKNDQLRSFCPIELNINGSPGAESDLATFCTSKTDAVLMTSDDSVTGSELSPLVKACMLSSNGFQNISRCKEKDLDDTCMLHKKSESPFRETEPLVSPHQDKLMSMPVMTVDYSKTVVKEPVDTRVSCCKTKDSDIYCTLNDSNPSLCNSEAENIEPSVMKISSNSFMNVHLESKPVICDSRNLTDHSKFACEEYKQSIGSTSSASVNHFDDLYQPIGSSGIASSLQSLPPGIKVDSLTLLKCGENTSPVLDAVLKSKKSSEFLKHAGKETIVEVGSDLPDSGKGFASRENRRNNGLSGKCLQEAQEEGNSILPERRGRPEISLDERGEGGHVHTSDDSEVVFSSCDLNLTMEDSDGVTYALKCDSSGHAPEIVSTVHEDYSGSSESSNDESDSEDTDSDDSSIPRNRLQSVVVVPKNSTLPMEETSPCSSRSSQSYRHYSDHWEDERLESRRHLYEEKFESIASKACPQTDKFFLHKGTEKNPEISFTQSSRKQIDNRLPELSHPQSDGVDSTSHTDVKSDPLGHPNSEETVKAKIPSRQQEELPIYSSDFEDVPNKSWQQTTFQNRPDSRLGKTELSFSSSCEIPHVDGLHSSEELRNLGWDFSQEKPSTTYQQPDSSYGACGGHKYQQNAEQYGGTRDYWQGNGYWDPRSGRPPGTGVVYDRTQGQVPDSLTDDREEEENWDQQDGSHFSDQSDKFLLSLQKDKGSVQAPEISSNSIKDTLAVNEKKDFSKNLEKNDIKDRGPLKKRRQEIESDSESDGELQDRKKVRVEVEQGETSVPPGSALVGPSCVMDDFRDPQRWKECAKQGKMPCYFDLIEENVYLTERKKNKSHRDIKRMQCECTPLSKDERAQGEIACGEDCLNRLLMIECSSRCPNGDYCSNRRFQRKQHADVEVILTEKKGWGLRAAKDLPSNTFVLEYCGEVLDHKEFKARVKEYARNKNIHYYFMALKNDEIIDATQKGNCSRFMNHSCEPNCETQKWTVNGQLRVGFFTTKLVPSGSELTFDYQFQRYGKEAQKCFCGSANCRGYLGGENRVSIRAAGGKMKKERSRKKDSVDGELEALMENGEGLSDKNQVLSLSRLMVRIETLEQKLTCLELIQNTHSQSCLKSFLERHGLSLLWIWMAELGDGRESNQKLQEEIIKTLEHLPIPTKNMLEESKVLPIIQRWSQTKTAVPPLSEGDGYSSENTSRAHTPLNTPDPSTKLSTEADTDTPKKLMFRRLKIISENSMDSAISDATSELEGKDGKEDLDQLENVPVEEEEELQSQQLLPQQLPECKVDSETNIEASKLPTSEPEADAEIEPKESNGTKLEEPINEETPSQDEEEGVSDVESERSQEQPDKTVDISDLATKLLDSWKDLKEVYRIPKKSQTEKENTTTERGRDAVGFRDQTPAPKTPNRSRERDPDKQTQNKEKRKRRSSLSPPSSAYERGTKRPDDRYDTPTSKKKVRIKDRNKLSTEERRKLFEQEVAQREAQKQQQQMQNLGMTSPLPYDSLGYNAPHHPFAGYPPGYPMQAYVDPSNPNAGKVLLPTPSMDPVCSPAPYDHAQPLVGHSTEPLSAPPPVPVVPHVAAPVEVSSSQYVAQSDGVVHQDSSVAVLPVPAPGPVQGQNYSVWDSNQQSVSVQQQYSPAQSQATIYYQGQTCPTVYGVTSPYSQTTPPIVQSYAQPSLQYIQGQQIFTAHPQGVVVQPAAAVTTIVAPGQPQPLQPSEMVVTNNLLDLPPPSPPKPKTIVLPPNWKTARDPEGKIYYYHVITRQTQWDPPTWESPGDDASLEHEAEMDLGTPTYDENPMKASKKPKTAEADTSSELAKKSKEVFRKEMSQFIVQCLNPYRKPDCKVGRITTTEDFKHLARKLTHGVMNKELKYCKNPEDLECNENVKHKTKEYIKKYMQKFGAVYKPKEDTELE
T2 sequence (Q8TEK3 whole entry): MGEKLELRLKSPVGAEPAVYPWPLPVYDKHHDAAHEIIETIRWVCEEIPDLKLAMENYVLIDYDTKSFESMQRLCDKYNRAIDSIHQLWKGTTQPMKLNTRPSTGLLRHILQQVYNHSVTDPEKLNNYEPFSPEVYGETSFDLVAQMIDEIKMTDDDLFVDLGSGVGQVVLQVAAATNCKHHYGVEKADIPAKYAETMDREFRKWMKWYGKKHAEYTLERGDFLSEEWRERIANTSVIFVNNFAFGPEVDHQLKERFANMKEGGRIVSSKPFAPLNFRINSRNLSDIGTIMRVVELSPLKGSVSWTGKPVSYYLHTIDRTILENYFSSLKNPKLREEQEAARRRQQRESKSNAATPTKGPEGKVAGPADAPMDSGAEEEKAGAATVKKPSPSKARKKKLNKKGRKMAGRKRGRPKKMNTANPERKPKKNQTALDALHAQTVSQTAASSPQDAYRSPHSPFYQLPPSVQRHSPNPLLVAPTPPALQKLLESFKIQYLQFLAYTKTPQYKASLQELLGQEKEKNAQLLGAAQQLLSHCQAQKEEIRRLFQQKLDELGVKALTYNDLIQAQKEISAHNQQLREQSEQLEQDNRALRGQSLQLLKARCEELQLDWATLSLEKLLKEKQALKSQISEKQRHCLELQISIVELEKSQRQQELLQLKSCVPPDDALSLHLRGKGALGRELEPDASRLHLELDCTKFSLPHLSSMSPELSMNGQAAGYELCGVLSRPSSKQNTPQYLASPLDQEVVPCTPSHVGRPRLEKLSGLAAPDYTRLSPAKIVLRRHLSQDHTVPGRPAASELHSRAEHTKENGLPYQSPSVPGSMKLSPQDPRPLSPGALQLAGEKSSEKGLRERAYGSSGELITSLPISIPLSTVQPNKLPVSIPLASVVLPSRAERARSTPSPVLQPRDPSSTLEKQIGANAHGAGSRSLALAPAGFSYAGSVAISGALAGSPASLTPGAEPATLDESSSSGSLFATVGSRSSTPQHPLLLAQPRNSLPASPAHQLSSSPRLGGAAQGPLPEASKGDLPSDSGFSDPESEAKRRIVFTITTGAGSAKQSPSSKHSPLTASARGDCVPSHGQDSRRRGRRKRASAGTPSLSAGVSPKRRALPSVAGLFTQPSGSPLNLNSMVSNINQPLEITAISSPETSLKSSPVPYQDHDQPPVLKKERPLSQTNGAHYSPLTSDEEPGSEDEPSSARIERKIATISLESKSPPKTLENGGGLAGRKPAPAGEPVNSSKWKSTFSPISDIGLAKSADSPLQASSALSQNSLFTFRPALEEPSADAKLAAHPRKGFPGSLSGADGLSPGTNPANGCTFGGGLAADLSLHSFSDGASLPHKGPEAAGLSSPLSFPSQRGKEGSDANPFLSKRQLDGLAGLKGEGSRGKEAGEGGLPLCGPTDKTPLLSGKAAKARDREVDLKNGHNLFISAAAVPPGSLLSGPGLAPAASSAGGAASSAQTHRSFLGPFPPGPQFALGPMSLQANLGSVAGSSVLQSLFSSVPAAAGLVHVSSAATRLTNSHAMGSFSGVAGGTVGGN

The Km is the concentration of substrate that gives half-maximal velocity. On to “RNA: RNA substrate 5′-ACGAGUCCUGGACUGAAACGGACUUGU-3′ (RNA, backbone not given here)”, for which the Km with METTL3-14 complex worked out at 0.0705 µM.

The IC50 is the point on the concentration scale where inhibition reaches its midpoint. Regarding `CC1=NN(c2ccc(C)c(C)c2)C(=O)/C1=N\Nc1cccc(-c2cccc(C(=O)O)c2)c1` [Compound 14d], the IC50 on METTL3-14 complex (full length METTL3-14 30 nM, SAM 300 nM, RNA substrate 300 nM, 1 h, read-out: IC50, METTL3-14 inhibition, bioluminescence enzyme based assay) worked out at 15.3 µM. Further, the “fold decrease of METTL3-14 inhibitory activity versus eltrombopag” value on METTL3-14 complex (relative to eltrombopag) was found to be 4 fold.

Usually GI50 stands for the concentration that inhibits growth by half. A high value points to less potent growth inhibition. Consider `Nc1ncnc2c1ncn2[C@@H]1O[C@H](C[C@@H](N)CC[C@H](N)C(=O)O)[C@@H](O)[C@H]1O` [Sinefungin, sinefungin], for which the 50% growth inhibitory concentration (GI50) with MOLM-13 cells [1] (MOLM-13, 72 h) is 24.8 ± 1.2 µM.

For orientation: inhibition means the relative decrease from the control value, in per cent. On to `COC(=O)c1cccc(-c2cccc(N/N=C3\C(=O)N(c4ccc(C)c(C)c4)N=C3C)c2O)c1` [Compound 14b], for which the inhibition at 60 µM at METTL3-14 complex came out at 23.7%.

Regarding STM2457, in [2], the “share of hypermethylation, previously reported” value was “about 30%”.

`C[S+](CC[C@H](N)C(=O)O)C[C@H]1O[C@@H](n2cnc3c(N)ncnc32)[C@H](O)[C@@H]1O` (stereo partly drawn) [SAM, S-(5′-adenosyl)-L-methionine]: at METTL3-14 complex, the Km is 0.0986 µM.

Regarding `Nc1ccn([C@@H]2O[C@H](CO)[C@@H](O)[C@@H]2O)c(=O)n1` [Cytarabine], in the series with MOLM-13 cells [3], the inhibition at 0.00167 µM was found to be 2.2 ± 3.1%, the inhibition at 0.005 µM was determined as 20.7 ± 4.33%, the inhibition at 0.015 µM stood at 48.3 ± 1.93% and the inhibition at 0.045 µM came to 75.7 ± 1.35%.

Regarding `CC1=NN(c2ccc(C)c(C)c2)C(=O)/C1=N\Nc1cccc(-c2ccccc2)c1O` [Compound 14a], at METTL3-14 complex, the inhibition at 60 µM was determined as 23.3%.

For `CN1C(=O)[C@@]23C[C@]4([C@]56C[C@@]78SS[C@@](CO)(C(=O)N7[C@H]5Nc5ccccc56)N(C)C8=O)c5ccccc5N[C@@H]4N2C(=O)[C@]1(CO)SS3` [Chaetocin], the IC50 at DOT1L was found to be 0.217 µM.

`CC1(C)CCC(CN2CCN(c3ccc(C(=O)NS(=O)(=O)c4ccc(NCC5CCOCC5)c([N+](=O)[O-])c4)c(Oc4cnc5[nH]ccc5c4)c3)CC2)=C(c2ccc(Cl)cc2)C1` [Venetoclax]: in the series with MOLM-13 cells [3], the inhibition at 0.00167 µM is 12.8 ± 3.69%, the inhibition at 0.005 µM was 29.2 ± 0.39%, the inhibition at 0.015 µM stood at 54.5 ± 3.76% and the inhibition at 0.045 µM is 77 ± 0.92%.

On to `CC1(C)CCN(Cc2ccc(C(=O)NC[C@]3(O)CCCN(c4cc(NCc5ccccc5)ncn4)C3)c(O)c2)CC1` [UZH1a], for which, in [4], the “maximum m^6A inhibition, previously reported” value is reported as 60–70%.

As for `Nc1ncnc2c1ncn2[C@@H]1O[C@H](CSCC[C@H](N)C(=O)O)[C@@H](O)[C@H]1O` [SAH, S-(5′-adenosyl)-L-homocysteine], the IC50 against SETD2 came to 10.8 µM; against SMYD3, 35.3 µM; against MLL4 complex, 5.09 µM; on PRDM9, 4.16 µM.

With `CCc1nc(C(N)=O)c(Nc2ccc(N3CCC(N4CCN(C)CC4)CC3)c(OC)c2)nc1NC1CCOCC1` [Gilteritinib], the GI50 in the series with MOLM-13 cells [1] (MOLM-13, 72 h, positive control, Figure S3) came to 0.0166 µM.

Source of the values: publication PMC9032718, “Eltrombopag as an Allosteric Inhibitor of the METTL3-14 Complex Affecting the m^6A Methylation of RNA in Acute Myeloid Leukemia Cells” (Pharmaceuticals, 2022).
